In patent publication US20180338980A1, “AROMATIC SULFONAMIDE DERIVATIVES” (BAYER PHARMA AKTIENGESELLSCHAFT, priority 2015, published 2018):

Experiments:
P2X4 [1] = target: T1, P2X4 (Homo sapiens, UniProt Q99571); experiment: Assay B: human P2X4 receptor cell line, mitochondrial photina luminescence (agonist Bz-ATP at EC50); type: cell-based; parameters: host or cells: HEK 293 (recombinant, constitutively expressing; with mitochondrial photina in Assay B); details: HEK human P2X4 cell line, photina luminescence, agonist Bz-ATP at EC50, average; for Emax: read-out: human P2X4 Assay B avg Efficacy
T1 sequence (Q99571 1-388): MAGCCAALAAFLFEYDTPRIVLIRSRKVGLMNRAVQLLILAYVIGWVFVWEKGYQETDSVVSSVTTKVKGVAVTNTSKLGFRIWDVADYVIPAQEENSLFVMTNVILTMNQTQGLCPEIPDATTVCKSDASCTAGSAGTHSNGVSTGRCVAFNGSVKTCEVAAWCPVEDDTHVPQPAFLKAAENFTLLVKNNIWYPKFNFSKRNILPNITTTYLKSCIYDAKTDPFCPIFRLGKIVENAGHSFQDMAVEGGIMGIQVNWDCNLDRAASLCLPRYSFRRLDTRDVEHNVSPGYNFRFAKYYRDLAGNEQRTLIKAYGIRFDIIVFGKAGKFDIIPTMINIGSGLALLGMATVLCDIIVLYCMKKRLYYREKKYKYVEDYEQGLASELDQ
Method in brief: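 Recombinant cell line constitutively expressing human P2X4 and mitochondrial photina photoprotein, reconstituted with coelenterazine. Receptor stimulated with Bz-ATP at EC50; calcium influx read immediately as luminescence.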

P2X4 [2] = target: T1, P2X4; experiment: Assay A: human P2X4 receptor cell line, FLIPR calcium assay (Fluo-8, agonist Bz-ATP at EC80); type: cell-based; parameters: host or cells: HEK 293 (recombinant, constitutively expressing; with mitochondrial photina in Assay B); details: HEK human P2X4 cells, Fluo-8 FLIPR; for IC50: Bz-ATP at EC80, average values; for Emax: percentage of maximal inhibition, read-out: human P2X4 Assay A avg Efficacy
Method in brief: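 HEK cells expressing human P2X4 (20,000/well, plated ~20 h earlier) loaded 30 min with 5 μM Fluo-8 in HBSS/HEPES buffer with 1.8 mM CaCl2, 1 mM MgCl2, 2 mM probenecid, pH 7.4. Antagonist preincubated 30 min at room temperature (0.5% DMSO), then Bz-ATP at EC80. Peak fluorescence over 120 s, normalized to DMSO; triplicate IC50 and Hill fits.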

IC50 (P2X4 [1])	Emax (P2X4 [1])	IC50 (P2X4 [2])	Emax (P2X4 [2])	SMILES
105 nM	54%	26 nM	83%	NS(=O)(=O)c1cc(NC(=O)Cc2c(F)ccc(F)c2Cl)ccc1Oc1cccc(Cl)c1 [Example 122, 2-(2-Chloro-3,6-difluorophenyl)-N-[4-(3-chlorophenoxy)-3-sulfamoylphenyl]acetamide]
380 nM	60%	184 nM	77%	Cc1ccc(Cl)c(CC(=O)Nc2ccc(Oc3cccc(Cl)c3)c(S(N)(=O)=O)c2)c1Cl [Example 128, N-[4-(3-Chlorophenoxy)-3-sulfamoylphenyl]-2-(2,6-dichloro-3-methylphenyl)acetamide]
1300 nM	69%	1170 nM	83%	NS(=O)(=O)c1cc(NC(=O)Cc2c(Cl)ccc(C3CC3)c2Cl)ccc1Oc1cccc(Cl)c1 [Example 129, N-[4-(3-Chlorophenoxy)-3-sulfamoylphenyl]-2-(2,6-dichloro-3-cyclopropylphenyl)acetamide]
1050 nM	70%	979 nM	91%	NS(=O)(=O)c1cc(NC(=O)Cc2c(Cl)ccc(C(F)(F)F)c2Cl)ccc1Oc1cccc(Cl)c1 [Example 130, N-[4-(3-Chlorophenoxy)-3-sulfamoylphenyl]-2-[2,6-dichloro-3-(trifluoromethyl)phenyl]acetamide]
2400 nM	86%	284 nM	77%	NS(=O)(=O)c1cc(NC(=O)Cc2c(Cl)ccc(Br)c2Cl)ccc1Oc1cccc(Cl)c1 [Example 131, 2-(3-bromo-2,6-dichlorophenyl)-N-[4-(3-chlorophenoxy)-3-sulfamoylphenyl]acetamide]
640 nM	102%	541 nM	72%	Cc1ccc(Br)c(Cl)c1CC(=O)Nc1ccc(Oc2cccc(Cl)c2)c(S(N)(=O)=O)c1 [Example 132, 2-(3-Bromo-2-chloro-6-methylphenyl)-N-[4-(3-chlorophenoxy)-3-sulfamoylphenyl]acetamide]
4100 nM	92%	375 nM	75%	Cc1c(Br)ccc(Cl)c1CC(=O)Nc1ccc(Oc2cccc(Cl)c2)c(S(N)(=O)=O)c1 [Example 133, 2-(3-Bromo-6-chloro-2-methylphenyl)-N-[4-(3-chlorophenoxy)-3-sulfamoylphenyl]acetamide]
1350 nM	77%	688 nM	83%	NS(=O)(=O)c1cc(NC(=O)Cc2cc(OC(F)(F)C(F)F)ccc2Cl)ccc1Oc1cccc(Cl)c1 [Example 134, N-[4-(3-Chlorophenoxy)-3-sulfamoylphenyl]-2-[2-chloro-5-(1,1,2,2-tetrafluoroethoxy)phenyl]acetamide]
870 nM	45%	631 nM	75%	NS(=O)(=O)c1cc(NC(=O)Cc2ccc(C(F)(F)F)cc2Cl)ccc1Oc1cccc(Cl)c1 [Example 135, N-[4-(3-Chlorophenoxy)-3-sulfamoylphenyl]-2-[2-chloro-4-(trifluoromethyl)phenyl]acetamide]
102 nM	83%	10 nM	90%	CS(=O)(=O)c1cccc(COc2ccc(NC(=O)Cc3ccccc3Cl)cc2S(N)(=O)=O)c1 [Example 136, 2-(2-Chlorophenyl)-N-(4-{[3-(methylsulfonyl)benzyl]oxy}-3-sulfamoylphenyl)acetamide]
44 nM	67%	8 nM	103%	COc1cccc(COc2ccc(NC(=O)Cc3ccccc3Cl)cc2S(N)(=O)=O)c1 [Example 140, 2-(2-Chlorophenyl)-N-{4-[(3-methoxybenzyl)oxy]-3-sulfamoylphenyl}acetamide]
60 nM	70%	43 nM	90%	N#Cc1cccc(COc2ccc(NC(=O)Cc3ccccc3Cl)cc2S(N)(=O)=O)c1 [Example 142, 2-(2-Chlorophenyl)-N-{4-[(3-cyanobenzyl)oxy]-3-sulfamoylphenyl}acetamide]
39 nM	71%	9 nM	72%	NS(=O)(=O)c1cc(NC(=O)Cc2ccccc2Cl)ccc1OCc1ccc(F)cc1 [Example 143, 2-(2-Chlorophenyl)-N-{4-[(4-fluorobenzyl)oxy]-3-sulfamoylphenyl}acetamide]
129 nM	76%	86 nM	93%	NS(=O)(=O)c1cc(NC(=O)Cc2ccccc2Cl)ccc1OCc1ccccc1Cl [Example 144, N-{4-[(2-Chlorobenzyl)oxy]-3-sulfamoylphenyl}-2-(2-chlorophenyl)acetamide]
118 nM	77%	45 nM	81%	NS(=O)(=O)c1cc(NC(=O)Cc2ccccc2Cl)ccc1OCc1cccnc1 [Example 149, 2-(2-Chlorophenyl)-N-[4-(pyridin-3-ylmethoxy)-3-sulfamoylphenyl]acetamide]
–	79%	–	96%	NS(=O)(=O)c1cc(NC(=O)Cc2ccccc2Cl)ccc1OCc1ccccn1 [Example 150, 2-(2-Chlorophenyl)-N-[4-(pyridin-2-ylmethoxy)-3-sulfamoylphenyl]acetamide]
69 nM	97%	143 nM	88%	NS(=O)(=O)c1cc(NC(=O)Cc2ccccc2Cl)ccc1OCc1ccncc1 [Example 151, 2-(2-Chlorophenyl)-N-[4-(pyridin-4-ylmethoxy)-3-sulfamoylphenyl]acetamide]
–	65%	–	87%	NS(=O)(=O)c1cc(NC(=O)Cc2ccccc2Cl)ccc1OCCc1ccccc1 [Example 155, 2-(2-Chlorophenyl)-N-[4-(2-phenylethoxy)-3-sulfamoylphenyl]acetamide]
–	55%	–	67%	NS(=O)(=O)c1cc(NC(=O)Cc2ccccc2Cl)ccc1OCC1CCC1 [Example 157, 2-(2-Chlorophenyl)-N-[4-(cyclobutylmethoxy)-3-sulfamoylphenyl]acetamide]
–	75%	–	91%	NS(=O)(=O)c1cc(NC(=O)Cc2ccccc2Cl)ccc1OCC1CCO1 (stereo not shown) [Example 158, 2-(2-Chlorophenyl)-N-[4-(oxetan-2-ylmethoxy)-3-sulfamoylphenyl]acetamide]
97 nM	43%	162 nM	59%	NS(=O)(=O)c1cc(NC(=O)Cc2ccccc2Cl)ccc1OCC1CCCOC1 (stereo not shown) [Example 165, 2-(2-Chlorophenyl)-N-[3-sulfamoyl-4-(tetrahydro-2H-pyran-3-ylmethoxy)phenyl]acetamide]
–	80%	–	87%	NS(=O)(=O)c1cc(NC(=O)Cc2cccc(F)c2Cl)ccc1OCC1CCOCC1 [Example 167, 2-(2-Chloro-3-fluorophenyl)-N-[3-sulfamoyl-4-(tetrahydro-2H-pyran-4-ylmethoxy)phenyl]acetamide]
181 nM	85%	86 nM	90%	NS(=O)(=O)c1cc(NC(=O)Cc2ccccc2Cl)cnc1Oc1cccc(C(F)(F)F)c1 [Example 168, 2-(2-chlorophenyl)-N-{5-sulfamoyl-6-[3-(trifluoromethyl)phenoxy]pyridin-3-yl}acetamide]
1030 nM	75%	274 nM	74%	NS(=O)(=O)c1cc(NC(=O)Cc2ccccc2)cnc1Oc1cccc(C(F)(F)F)c1 [Example 169, 2-Phenyl-N-{5-sulfamoyl-6-[3-(trifluoromethyl)phenoxy]pyridin-3-yl}acetamide]
–	92%	–	100%	NS(=O)(=O)c1cc(NC(=O)Cc2ccccc2Cl)ccc1Oc1cccc(N2CCOCC2=O)c1 [Example 173, 2-(2-Chlorophenyl)-N-{4-[3-(3-oxomorpholin-4-yl)phenoxy]-3-sulfamoylphenyl}acetamide]
–	64%	–	74%	NS(=O)(=O)c1cc(NC(=O)Cc2ccccc2Cl)ccc1Oc1ccc(N2CCOCC2=O)cc1 [Example 174, 2-(2-Chlorophenyl)-N-{4-[4-(3-oxomorpholin-4-yl)phenoxy]-3-sulfamoylphenyl}acetamide]
15000 nM	67%	1300 nM	52%	NS(=O)(=O)c1cc(NC(=O)Cc2ccccc2Cl)ccc1Oc1ccc(N2CCCCC2=O)cc1 [Example 175, 2-(2-Chlorophenyl)-N-{4-[4-(2-oxopiperidin-1-yl)phenoxy]-3-sulfamoylphenyl}acetamide]
